According to patent US20130102631A1, “NOVEL MICROBIOCIDAL DIOXIME ETHER DERIVATIVES” (SYNGENTA CROP PROTECTION LLC, priority 2010, published 2013):

How the values were obtained:
Gaeumannomyces graminis = Gaeumannomyces graminis / liquid culture (take-all of cereals); assay type: cell-based; conditions: at ≦200 ppm, liquid culture PDB, inhibition of growth photometrically 4-5 days after application, read-out: control of Gaeumannomyces graminis
Method: Gaeumannomyces graminis/Liquid Culture (Take-All of Cereals): Mycelial fragments of the fungus from cryogenic storage were directly mixed into nutrient broth (PDB potato dextrose broth). After placing a DMSO solution of test compound into a 96-well microtiter plate, the nutrient broth containing the fungal spores is added. The test plates were incubated at 24° C. and the inhibition of growth was determined photometrically 4-5 days after application. […]-2.509; 5.561; 2.561; P.57; 2.513; 2.559; 2.558; 2.557; 2.556; 2.555; 2.374; 2.553; 2.552; 2.551 (fraction B); 2.551 (fraction A); 2.539; 2.533; 2.528; 2.526; 2.525 (fraction B); 2.525 (fraction A); 2.524; 2.523; 2.521; 2.520; 2.519; 2.510; 2.518; 2.516; 2.514; E/E-5.167; E/E-3.002; 2.512; E/E-2.508

[1] = test system: Thanatephorus cucumeris (Rhizoctonia solani); experiment: Thanatephorus cucumeris (Rhizoctonia solani) / liquid culture (foot rot, damping-off); assay type: cell-based; conditions: at ≦200 ppm, liquid culture PDB, inhibition of growth photometrically 3-4 days after application, read-out: control of Thanatephorus cucumeris
Method: Thanatephorus cucumeris (Rhizoctonia solani)/Liquid Culture (Foot Rot, Damping-Off Mycelia fragments of a newly grown liquid culture of the fungus are directly mixed into nutrient broth (PDB potato dextrose broth). After placing a DMSO solution of the test compounds into a 96-well microtiter, the nutrient broth containing the fungal material was added. The test plates were incubated at 24° C. and the inhibition of growth was determined photometrically 3-4 days after application. […]-2.508 5.561; 2.561; P.57; 2.513; 2.559; 2.558; 2.553; 2.533; 2.530; 2.526; 2.519; 2.517; 2.516; 2.514; 2.512; 2.514

[2] = test system: Monographella nivalis (Microdochium nivale); experiment: Monographella nivalis (Microdochium nivale) / liquid culture (foot rot cereals); assay type: cell-based; conditions: at ≦200 ppm, liquid culture PDB, inhibition of growth photometrically 4-5 days after application, read-out: control of Monographella nivalis
Method: Monographella nivalis (Microdochium nivale)/Liquid Culture (Foot Rot Cereals): Conidia of the fungus from cryogenic storage were directly mixed into nutrient broth (PDB potato dextrose broth). After placing a DMSO solution of test compound into a 96-well microtiter plate, the nutrient broth containing the fungal spores was added. The test plates were incubated at 24° C. and the inhibition of growth was determined photometrically 4-5 days after application. […].57; 2.513; 2.559; 2.558; 2.556; 2.555; 2.374; 2.553; 2.551 (fraction B); 2.551 (fraction A); 2.548; 2.544; 2.542; 2.541; 2.539; 2.536; 2.535; 2.533; 2.530; 2.528; 2.526; 2.525 (fraction B); 2.525 (fraction A); 2.524; 2.519; 2.518; 2.516; 2.514; E/E-5.167; 2.512; 2.514

[3] = test system: Mycosphaerella graminicola (Septoria tritici); experiment: Mycosphaerella graminicola (Septoria tritici) / liquid culture (Septoria blotch); assay type: cell-based; conditions: Zymoseptoria tritici; at ≦200 ppm, liquid culture PDB, inhibition of growth photometrically 4-5 days after application; read-out: control of Mycosphaerella graminicola
Pyrenophora teres = Pyrenophora teres / barley / leaf disc preventative (net blotch); assay type: in vivo; conditions: foliar, barley leaf segments cv Hasso, inoculated two days after application, assessed 5-7 days after application
Method: Pyrenophora teres/Barley/Leaf Disc Preventative (Net Blotch): Barley leaf segments cv Hasso are placed on agar in a 24-well plate and sprayed with formulated test compound diluted in water at an application rate of 200 ppm. The leaf segments are inoculated with a spore suspension of the fungus two days after application of the test solution. The inoculated leaf segments are incubated at 20° C. and 65% relative humidity under a light regime of 12/12 h (light/dark) in a climate cabinet and the activity of a compound is assessed as disease control compared to untreated when an appropriate level of disease damage appears in untreated check leaf segments (5-7 days after application). […]-2.507; 5.561; 2.561; E/E-2.208; P.57; 2.513; 2.559; 2.558; 2.556; 2.555; 2.374; 2.552; 2.544; 2.537; 2.533; 2.530; 2.528; 2.519; 2.510; 2.516; 2.514; E/E-5.167; E/E-3.002; 2.512

[4] = test system: Phaeosphaeria nodorum (Septoria nodorum); experiment: Phaeosphaeria nodorum (Septoria nodorum) / wheat / leaf disc preventative (glume blotch); assay type: in vivo; conditions: Parastagonospora nodorum, foliar, wheat leaf segments cv Kanzler, inoculated 2 days after application, assessed 5-7 days after application
Method: Phaeosphaeria nodorum (Septoria nodorum)/Wheat/Leaf Disc Preventative (Glume Blotch): Wheat leaf segments cv Kanzler were placed on agar in a 24-well plate and sprayed with formulated test compound diluted in water at an application rate of 200 ppm. The leaf disks are inoculated with a spore suspension of the fungus 2 days after application. The inoculated test leaf disks are incubated at 20° C. and 75% relative humidity under a light regime of 12/12 h (light/dark) in a climate cabinet and the activity of a compound is assessed as percent disease control compared to untreated when an appropriate level of disease damage appears in untreated check leaf disks (5-7 days after application). […]-2.508; 5.561; 2.561; E/E-2.208; P.57; 2.513; 2.559; 2.558; 2.557; 2.556; 2.555; 2.374; 2.544; 2.541; 2.539; 2.537; 2.536; 2.535; 2.533; 2.530; 2.526; 2.519; 2.510; 2.516; 2.514; E/E-5.167; E/E-3.002; 2.512

[5] = test system: Mycosphaerella arachidis (Cercospora arachidicola); experiment: Mycosphaerella arachidis (Cercospora arachidicola) / liquid culture (early leaf spot); assay type: cell-based; conditions: at ≦200 ppm, liquid culture PDB, inhibition of growth photometrically 4-5 days after application, read-out: control of Mycosphaerella arachidis
Method: Mycosphaerella arachidis (Cercospora arachidicola)/Liquid Culture (Early Leaf Spot): Conidia of the fungus from cryogenic storage were directly mixed into nutrient broth (PDB potato dextrose broth). After placing a DMSO solution of test compound into a 96-well microtiter plate, the nutrient broth containing the fungal spores was added. The test plates are incubated at 24° C. and the inhibition of growth was determined photometrically 4-5 days after application. […]-2.509; 5.561; 2.561; P.57; 2.513; 2.559; 2.558; 2.557; 2.556; 2.555; 2.374; 2.553; 2.552; 2.551 (fraction B); 2.551 (fraction A); 2.544; 2.541; 2.539; 2.537; 2.536; 2.533; 2.532; 2.531; 2.530; 2.528; 2.526; 2.525 (fraction B); 2.525 (fraction A); 2.524; 2.520; 2.519; 2.510; 2.518; 2.517; 2.516; 2.514; […].002; 2.512; 2.511; 2.514

Glomerella lagenarium = Glomerella lagenarium (Colletotrichum lagenarium) / liquid culture (anthracnose); assay type: cell-based; conditions: Colletotrichum orbiculare; at ≦200 ppm, liquid culture PDB, inhibition of growth photometrically 3-4 days after application; read-out: control of Glomerella lagenarium
Method: Glomerella lagenarium (Colletotfichum lagenarium)/Liquid Culture (Anthracnose): Conidia of the fungus from cryogenic storage were directly mixed into nutrient broth (PDB potato dextrose broth). After placing a DMSO solution of test compound into a 96-well microtiter, the nutrient broth containing the fungal spores was added. The test plates were incubated at 24° C. and the inhibition of growth is measured photometrically 3-4 days after application. […]-2.509; 5.561; 2.561; E/E-2.208; P.57; 2.513; 2.559; 2.556; 2.555; 2.374; 2.552; 2.548; 2.544; 2.541; 2.540; 2.539; 2.537; 2.536; 2.533; 2.531; 2.530; 2.528; 2.526; 2.519; 2.510; 2.516; 2.514; E/E-5.167; E/E-3.002; 2.512; 2.514; Z/E-2.474

[6] = test system: Blumeria graminis f. sp. tritici (Erysiphe graminis f. sp. tritici); experiment: Blumeria graminis f. sp. tritici / wheat / leaf disc preventative (powdery mildew on wheat); assay type: in vivo; conditions: foliar, wheat leaf segments cv. Kanzler, inoculated 1 day after application, assessed 6-8 days after application
Method: Blumeria graminis f. sp. tritici (Erysiphe graminis f. sp. tritici)/Wheat/Leaf Disc Preventative (Powdery Mildew on Wheat):
Wheat leaf segments cv. Kanzler were placed on agar in a 24-well plate and sprayed with the formulated test compound diluted in water at an application rate of 200 ppm. The leaf disks were inoculated by shaking powdery mildew infected plants above the test plates 1 day after application. The inoculated leaf disks were incubated at 20° C. and 60% relative humidity under a light regime of 24 h darkness followed by 12 h/12 h (dark/light) in a climate chamber and the activity of a compound was assessed as percent disease control compared to untreated when an appropriate level of disease damage appears on untreated check leaf segments (6-8 days after application). The following compounds gave at least 80% control of Blumeria graminis: E/E-2.168, E/E-2.474, E/E-2.002; 5.561; 2.561; E/E-2.208; 2.513; 2.559; 2.557; 2.556; 2.555; 2.374; 2.552; 2.537; 2.533; 2.530; 2.528; 2.526; 2.519; 2.510; 2.516; 2.514; E/E-5.167; E/E-3.002; 2.512; 2.511

C/C(=N\OCC(C)(C)CO/N=C1\CCCc2ccc(C#CCO)nc21)c1cc(C)cc(C)n1 [Compound 2.558]
≥ 80%: inhibition of growth at up to 200 µg/mL (Gaeumannomyces graminis) | inhibition of growth at up to 200 µg/mL [1] | inhibition of growth at up to 200 µg/mL [2] | inhibition of growth at up to 200 µg/mL [3] | pest or weed control at 200 ppm (Pyrenophora teres) | pest or weed control at 200 ppm [4] | inhibition of growth at up to 200 µg/mL [5]

CCOC(=O)c1ccc(C)c(/C(C)=N/OCC(C)(C)CO/N=C2\CCCc3ccc(C)nc32)n1 [Compound 2.526]
≥ 80%: inhibition of growth at up to 200 µg/mL (Glomerella lagenarium) | inhibition of growth at up to 200 µg/mL (Gaeumannomyces graminis) | inhibition of growth at up to 200 µg/mL [1] | inhibition of growth at up to 200 µg/mL [2] | inhibition of growth at up to 200 µg/mL [3] | pest or weed control at 200 ppm [4] | pest or weed control at 200 ppm [6] | inhibition of growth at up to 200 µg/mL [5]

Cc1ccc2c(n1)/C(=N/OCC(C)(C)CO/N=C/c1ccc(OCc3ccccc3)cn1)CCC2 [Compound 2.553]
≥ 80%: inhibition of growth at up to 200 µg/mL (Gaeumannomyces graminis) | inhibition of growth at up to 200 µg/mL [1] | inhibition of growth at up to 200 µg/mL [2] | inhibition of growth at up to 200 µg/mL [3] | inhibition of growth at up to 200 µg/mL [5]
